Data reported in patent publication US10357477B2, “Anticancer compounds” (REGENTS OF THE UNIVERSITY OF MINNESOTA, priority 2016, dated 2019).

Columns and labels:
Panc-1 cells = assay: Cell viability assay (MTT) in Panc-1 cells; assay type: cell-based; details: Homo sapiens, antiproliferative activity, 72 h
Description: Panc-1 cells are maintained in RPMI 1640 (Invitrogen 11875) media supplemented with 10% FBS, 1% Penicillin/Streptomycin and 1% Glutamax-1. Cells were plated in 96-well plates at 25×10^4 cells/ml. After 24 hours, compounds were added at 9, 3× dilutions in triplicate from 100 uM final concentration in the appropriate growth media. Plates were incubated for 72 hours at 37° C. in a 5% CO2/95% air humidified atmosphere after which time the media was removed and MTT was added in RPMI phenol red free media. The MTT was removed after 3 hours and formazan crystals were solubilized with 200 μL of isopropanol. Plates were read on a Molecular Devices SpectraMax i3 spectrophotometer at 570 nm for formazan and 690 nm for background subtraction. EC50 values were calculated by fitting the data in GraphPad Prism software.

MIA PaCa-2 cells = assay: Cell viability assay (MTT) in MIA PaCa-2 cells; assay type: cell-based; details: Homo sapiens, antiproliferative activity, 72 h
How it was run: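 MIA PaCa-2 cells exposed 72 h at 37° C to 2-fold serial compound dilutions from 100 μM final, 0.5% DMSO, in triplicate. Viability by MTT (3 h), formazan read at 570 nm minus 650 nm; EC50 from curve fit.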

CNC(=O)c1cccc(Cn2nc(C)c(NC(=O)c3ccc(COc4ccc(C(F)(F)F)cc4)cc3)c2C)c1 [Compound D9c, 3-((3,5-Dimethyl-4-(4-((4-(trifluoromethyl)phenoxy)-methyl)benzamido)-1H-pyrazol-1-yl)methyl)-N-methylbenzamide]
EC50 (Panc-1 cells): 210 nM | EC50 (MIA PaCa-2 cells): 800 nM
